# According to patent US9624214B2, “Amino-substituted imidazo[1,2-a]pyridinecarboxamides and their use” (BAYER PHARMA AKTIENGESELLSCHAFT, priority 2012, dated 2017):
# Target: T1, recombinant guanylate cyclase reporter cell line (Rattus norvegicus, UniProt P19686+P20595)
# T1 construct: expressed in transfected cells
# T1 sequence (P20595 1-619): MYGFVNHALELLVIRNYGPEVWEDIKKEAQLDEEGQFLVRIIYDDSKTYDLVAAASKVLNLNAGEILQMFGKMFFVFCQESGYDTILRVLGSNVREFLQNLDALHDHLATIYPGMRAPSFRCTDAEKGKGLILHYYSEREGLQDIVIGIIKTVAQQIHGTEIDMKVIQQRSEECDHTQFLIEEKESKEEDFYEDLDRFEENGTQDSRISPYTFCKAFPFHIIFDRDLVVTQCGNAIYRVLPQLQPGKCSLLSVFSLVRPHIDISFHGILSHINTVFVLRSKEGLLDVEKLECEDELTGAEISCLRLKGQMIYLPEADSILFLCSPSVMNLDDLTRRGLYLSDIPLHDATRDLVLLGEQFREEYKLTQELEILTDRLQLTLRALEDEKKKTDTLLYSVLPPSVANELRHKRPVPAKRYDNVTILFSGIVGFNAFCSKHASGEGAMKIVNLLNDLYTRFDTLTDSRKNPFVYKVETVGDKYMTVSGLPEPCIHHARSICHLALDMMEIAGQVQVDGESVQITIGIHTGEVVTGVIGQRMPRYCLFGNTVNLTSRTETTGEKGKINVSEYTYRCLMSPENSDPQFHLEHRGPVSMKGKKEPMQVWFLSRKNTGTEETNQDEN
# T1 sequence (P19686 1-690): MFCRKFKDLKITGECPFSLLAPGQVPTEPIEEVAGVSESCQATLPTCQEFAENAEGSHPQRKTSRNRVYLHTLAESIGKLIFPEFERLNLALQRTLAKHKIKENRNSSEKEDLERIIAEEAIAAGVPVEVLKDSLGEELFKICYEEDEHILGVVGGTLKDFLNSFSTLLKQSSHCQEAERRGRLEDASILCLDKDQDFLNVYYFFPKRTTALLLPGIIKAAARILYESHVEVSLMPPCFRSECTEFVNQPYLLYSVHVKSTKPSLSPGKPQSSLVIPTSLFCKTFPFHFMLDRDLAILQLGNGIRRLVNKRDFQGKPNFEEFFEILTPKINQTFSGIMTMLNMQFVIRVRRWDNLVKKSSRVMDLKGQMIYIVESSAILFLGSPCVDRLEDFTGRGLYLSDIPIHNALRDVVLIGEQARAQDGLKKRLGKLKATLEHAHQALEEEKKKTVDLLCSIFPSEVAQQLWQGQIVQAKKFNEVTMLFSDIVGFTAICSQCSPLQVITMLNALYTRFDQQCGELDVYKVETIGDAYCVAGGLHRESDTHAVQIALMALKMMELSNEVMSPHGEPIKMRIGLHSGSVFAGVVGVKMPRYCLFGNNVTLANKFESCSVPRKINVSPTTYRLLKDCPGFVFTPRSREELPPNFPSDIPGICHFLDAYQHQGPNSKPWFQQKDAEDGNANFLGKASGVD
# Test: B-2. Action on recombinant guanylate cyclase reporter cell line
# Format: cell-based
# Conditions: MEC = minimal effective concentration; in some cases mean values from individual determinations
# Outline: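 Whole-cell reporter assay with recombinant guanylate cyclase; endpoint = minimal effective concentration.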
row,MEC [µM],SMILES
1,0.30,"Cc1cc(OCc2c(F)cccc2F)c2nc(C)c(C(=O)NC3C(N)C3(C)C)n2c1 (racemic) [Example 341, rac-N-(3-amino-2,2-dimethylcyclopropyl)-8-[(2,6-difluorobenzyl)oxy]-2,6-dimethylimidazo[1,2-a]pyridine-3-carboxamide (Racemate)]"
2,1.00,"Cc1cc(OCc2c(F)cccc2F)c2nc(C)c(C(=O)NC3CCC4NCCC43)n2c1 (racemic) [Example 342, rac-8-[(2,6-Difluorobenzyl)oxy]-2,6-dimethyl-N-(octahydrocyclopenta[b]pyrrol-4-yl)imidazo[1,2-a]pyridine-3-carboxamide]"
3,1.00,"CCCC(C)(N)CNC(=O)c1c(C)nc2c(OCc3ccccc3Cl)cc(C)cn12 (racemic) [Example 343, rac-N-(2-amino-2-methylpentyl)-8-[(2-chlorobenzyl)oxy]-2,6-dimethylimidazo[1,2-a]pyridine-3-carboxamide]"
4,1.00,"Cc1cc(OCc2c(F)cccc2F)c2nc(C)c(C(=O)NCC3CN(Cc4ccccc4)CCO3)n2c1 (racemic) [Example 344, rac-N-[(4-benzylmorpholin-2-yl)methyl]-8-[(2,6-difluorobenzyl)oxy]-2,6-dimethylimidazo[1,2-a]pyridine-3-carboxamide]"
5,1.00,"Cc1cc(OCc2c(F)cccc2F)c2nc(C)c(C(=O)NCC3CNCCO3)n2c1 (racemic) [Example 345, rac-8-[(2,6-Difluorobenzyl)oxy]-2,6-dimethyl-N-(morpholin-2-ylmethyl)imidazo[1,2-a]pyridine-3-carboxamide]"
6,1.00,"Cc1cc(OCc2c(F)cccc2F)c2nc(C)c(C(=O)NC34CCC3CNC4)n2c1 (racemic) [Example 346, rac-N-(3-azabicyclo[3.2.0]hept-1-yl)-8-[(2,6-difluorobenzyl)oxy]-2,6-dimethylimidazo[1,2-a]pyridine-3-carboxamide]"
7,1.00,"Cc1cc(OCc2c(F)cccc2F)c2nc(C)c(C(=O)NC3CNCC3F)n2c1 (racemic) [Example 347, rac-8-[(2,6-Difluorobenzyl)oxy]-N-(4-fluoropyrrolidin-3-yl)-2,6-dimethylimidazo[1,2-a]pyridine-3-carboxamide]"
8,1.00,"CCCC(C)(N)CNC(=O)c1c(C)nc2c(OCc3cccc(F)c3)cc(C)cn12 (racemic) [Example 348, rac-N-(2-amino-2-methylpentyl)-8-[(3-fluorobenzyl)oxy]-2,6-dimethylimidazo[1,2-a]pyridine-3-carboxamide]"
9,1.00,"Cc1cc(OCc2c(F)cccc2F)c2nc(C)c(C(=O)NCC(C)(N)COc3ccc(F)c(F)c3)n2c1 (racemic) [Example 350, rac-N-[2-amino-3-(3,4-difluorophenoxy)-2-methylpropyl]-8-[(2,6-difluorobenzyl)oxy]-2,6-dimethylimidazo[1,2-a]pyridine-3-carboxamide]"
10,3.00,"CCCC(C)(N)CNC(=O)c1c(C)nc2c(OCc3c(F)cccc3OC)cc(C)cn12 (racemic) [Example 351, rac-N-(2-amino-2-methylpentyl)-8-[(2-fluoro-6-methoxybenzyl)oxy]-2,6-dimethylimidazo[1,2-a]pyridine-3-carboxamide]"
11,0.10,"Cc1cc(OCc2c(F)cccc2F)c2nc(C)c(C(=O)NCC3CSCCN3)n2c1 (racemic) [Example 366, rac-8-[(2,6-difluorobenzyl)oxy]-2,6-dimethyl-N-(thiomorpholin-3-ylmethyl)imidazo[1,2-a]pyridine-3-carboxamide]"

# Further lines, the compound ahead of its results:
row,SMILES,MEC [µM]
1,"CCCC(C)(N)CNC(=O)c1c(CC)nc2c(OCc3c(F)cccc3F)cc(C)cn12 (racemic) [Example 301, rac-N-(2-amino-2-methylpentyl)-8-[(2,6-difluorobenzyl)oxy]-2-ethyl-6-methylimidazo[1,2-a]pyridine-3-carboxamide]",0.10
2,"Cc1cc(OCc2c(F)cccc2F)c2nc(C)c(C(=O)NC3CCNC(C(F)(F)F)C3)n2c1 (racemic) [Example 302, rac-8-[(2,6-difluorobenzyl)oxy]-2,6-dimethyl-N-[2-(trifluoromethyl)piperidin-4-yl]imidazo[1,2-a]pyridine-3-carboxamide]",0.10
3,"CCCC(C)(N)CNC(=O)c1c(C)nc2c(OCc3cccc(F)c3F)cc(C)cn12 (racemic) [Example 303, rac-N-(2-amino-2-methylpentyl)-8-[(2,3-difluorobenzyl)oxy]-2,6-dimethylimidazo[1,2-a]pyridine-3-carboxamide]",0.20
4,"Cc1cc(OCc2c(F)cccc2F)c2nc(C)c(C(=O)NCC(C)(N)Cc3nc4ccccc4s3)n2c1 (racemic) [Example 310, rac-N-[2-amino-3-(1,3-benzothiazol-2-yl)-2-methylpropyl]-8-[(2,6-difluorobenzyl)oxy]-2,6-dimethylimidazo[1,2-a]pyridine-3-carboxamide]",0.30
5,"CCCC(C)(N)CNC(=O)c1c(C)nc2c(OCc3c(F)c(F)cc(F)c3F)cc(C)cn12 (racemic) [Example 311, rac-N-(2-amino-2-methylpentyl)-2,6-dimethyl-8-[(2,3,5,6-tetrafluorobenzyl)oxy]imidazo[1,2-a]pyridine-3-carboxamide]",0.30
6,"Cc1cc(OCc2c(F)cccc2F)c2nc(C)c(C(=O)NC3CNCC(F)(F)C3)n2c1 (racemic) [Example 312, rac-8-[(2,6-difluorobenzyl)oxy]-N-(5,5-difluoropiperidin-3-yl)-2,6-dimethylimidazo[1,2-a]pyridine-3-carboxamide]",0.30
7,"Cc1cc(OCc2c(F)cccc2F)c2nc(C)c(C(=O)NC3CCCCNC3)n2c1 (racemic) [Example 316, rac-N-(azepan-3-yl)-8-[(2,6-difluorobenzyl)oxy]-2,6-dimethylimidazo[1,2-a]pyridine-3-carboxamide]",0.30
8,"CCCC(C)(N)CNC(=O)c1c(C)nc2c(OCc3cccc(C)c3F)cc(C)cn12 (racemic) [Example 317, rac-N-(2-amino-2-methylpentyl)-8-[(2-fluoro-3-methylbenzyl)oxy]-2,6-dimethylimidazo[1,2-a]pyridine-3-carboxamide]",0.30
9,"Cc1cc(OCc2c(F)cccc2F)c2nc(C)c(C(=O)NC3(C)CC3(C)N)n2c1 (racemic) [Example 320, rac-N-(2-amino-1,2-dimethylcyclopropyl)-8-[(2,6-difluorobenzyl)oxy]-2,6-dimethylimidazo[1,2-a]pyridine-3-carboxamide (Racemate)]",0.30
10,"Cc1cc(OCc2c(F)cccc2F)c2nc(C)c(C(=O)NCC(C)(N)Cc3ncn(-c4cc(C)on4)n3)n2c1 (racemic) [Example 321, rac-N-{2-amino-2-methyl-3-[1-(5-methyl-1,2-oxazol-3-yl)-1H-1,2,4-triazol-3-yl]propyl}-8-[(2,6-difluorobenzyl)oxy]-2,6-dimethylimidazo[1,2-a]pyridine-3-carboxamide]",0.30
11,"Cc1cc(OCc2c(F)cccc2F)c2nc(C)c(C(=O)NC3CC3N)n2c1 (racemic) [Example 330, rac-N-(2-aminocyclopropyl)-8-[(2,6-difluorobenzyl)oxy]-2,6-dimethylimidazo[1,2-a]pyridine-3-carboxamide]",0.30
12,"Cc1cc(OCc2c(F)cccc2F)c2nc(C)c(C(=O)NC3CCC3(C)N)n2c1 (racemic) [Example 331, rac-N-(2-amino-2-methylcyclobutyl)-8-[(2,6-difluorobenzyl)oxy]-2,6-dimethylimidazo[1,2-a]pyridine-3-carboxamide]",0.30
13,"Cc1cc(OCc2c(F)cccc2F)c2nc(C)c(C(=O)NC3(C)CCC3(C)N)n2c1 (racemic) [Example 335, rac-N-[2-amino-1,2-dimethylcyclobutyl]-8-[(2,6-difluorobenzyl)oxy]-2,6-dimethylimidazo[1,2-a]pyridine-3-carboxamide]",0.30
14,"CCCC(C)(N)CNC(=O)c1c(C)nc2c(OCc3ccccc3)cc(C)cn12 (racemic) [Example 340, rac-N-(2-amino-2-methylpentyl)-8-(benzyloxy)-2,6-dimethylimidazo[1,2-a]pyridine-3-carboxamide]",1.00
